In patent US7632933B2, “Corticotropin releasing factor 2 receptor agonists” (priority 2002, dated 2009):
Like-named read-outs stand apart in the source and are kept apart here. Ends that are not written are not given here. Peptide text beside a SMILES is read from it.

How the values were obtained:
[1] = molecular target: T1, CRF1R (Homo sapiens, UniProt P34998); assay: CRF1R agonist activity (EC50 and Emax), called comparative CRF binding; type: cell-based; conditions: CRF1R
T1 sequence (P34998 24-415): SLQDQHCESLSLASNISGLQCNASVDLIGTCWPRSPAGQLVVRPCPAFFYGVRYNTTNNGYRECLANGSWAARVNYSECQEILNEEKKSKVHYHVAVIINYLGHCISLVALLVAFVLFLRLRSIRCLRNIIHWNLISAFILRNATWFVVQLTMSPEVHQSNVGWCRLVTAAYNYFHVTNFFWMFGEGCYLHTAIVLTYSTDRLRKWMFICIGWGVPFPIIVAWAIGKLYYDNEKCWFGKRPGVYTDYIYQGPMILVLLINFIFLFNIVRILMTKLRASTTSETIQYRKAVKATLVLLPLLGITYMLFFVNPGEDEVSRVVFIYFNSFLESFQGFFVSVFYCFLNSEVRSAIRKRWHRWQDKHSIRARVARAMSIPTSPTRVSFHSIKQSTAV
Procedure, shortened: (§1)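 Steps: express single CRFR subtype in cells; add peptide or vehicle; prepare lysates or quantify CRE-linked reporter (e.g. luciferase, CAT, GFP, alkaline phosphatase) to gauge cAMP increase.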

[2] = molecular target: T2, CRF2R (Homo sapiens, UniProt Q13324); assay: CRF2R agonist activity (EC50 and Emax), called comparative CRF binding; type: cell-based; conditions: CRF2R
T2 sequence (Q13324 1-411): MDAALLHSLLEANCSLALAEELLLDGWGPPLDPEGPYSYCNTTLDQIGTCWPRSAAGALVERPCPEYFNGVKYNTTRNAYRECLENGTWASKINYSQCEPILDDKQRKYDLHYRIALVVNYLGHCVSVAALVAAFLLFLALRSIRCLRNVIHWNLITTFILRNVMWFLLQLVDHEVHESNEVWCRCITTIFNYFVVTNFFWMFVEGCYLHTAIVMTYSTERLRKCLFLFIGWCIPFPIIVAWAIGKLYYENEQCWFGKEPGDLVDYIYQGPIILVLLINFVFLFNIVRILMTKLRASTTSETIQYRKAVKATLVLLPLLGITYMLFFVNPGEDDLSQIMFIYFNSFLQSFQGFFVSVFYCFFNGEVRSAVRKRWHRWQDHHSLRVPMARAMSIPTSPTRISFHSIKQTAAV
Procedure, shortened: as §1

| Molecule | EC50 ([1]; read-out: CRF1R EC50) | EC50 ([2]; read-out: CRF2R EC50) | EC50 ([1]; CRF1R EC50 (nM)) | EC50 ([2]; CRF2R EC50 (nM)) |
| --- | --- | --- | --- | --- |
| SQEPPISLDLPLGLLREVLEMTKADQLAQQAHSNRKLLDIA-NH2 [compound 90] | ≥ 100 nM | ≥ 100 nM | – | – |
| SQEPPISLDLPTYLLREVLEMTKADQLAQQAHSNRKLLDIA-NH2 [compound 106] | ≥ 100 nM | ≥ 100 nM | – | – |
| CC[C@H](C)[C@H](NC(=O)[C@H](C)NC(=O)[C@H](CC(N)=O)NC(=O)[C@H](CCC(N)=O)NC(=O)[C@H](CCC(=O)O)NC(=O)[C@H](C)NC(=O)[C@H](CCCNC(=N)N)NC(=O)[C@H](CCC(=O)O)NC(=O)[C@H](CCCNC(=N)N)NC(=O)[C@H](CCC(N)=O)NC(=O)[C@H](CO)NC(=O)[C@H](CCC(N)=O)NC(=O)[C@@H](NC(=O)[C@H](CCCNC(=N)N)NC(=O)[C@H](C)NC(=O)[C@H](CC(C)C)NC(=O)[C@H](CCC(=O)O)NC(=O)[C@H](CC(C)C)NC(=O)[C@H](CC(C)C)NC(=O)[C@@H](NC(=O)[C@H](CCCNC(=N)N)NC(=O)[C@H](CC(C)C)NC(=O)[C@H](CC(C)C)NC(=O)[C@H](Cc1ccc(O)cc1)NC(=O)[C@@H](NC(=O)[C@@H]1CCCN1C(=O)[C@H](CC(C)C)NC(=O)[C@H](CC(=O)O)NC(=O)[C@@H](NC(=O)[C@H](CO)NC(=O)[C@H](CC(C)C)NC(=O)[C@H](CO)NC(=O)[C@@H]1CCCN1C(=O)[C@H](CC(N)=O)NC(=O)[C@@H](N)CC(=O)O)[C@@H](C)CC)[C@@H](C)O)[C@@H](C)O)[C@@H](C)O)C(=O)N[C@H](C(=O)N[C@@H](Cc1ccccc1)C(=O)N[C@@H](C)C(=O)N[C@@H](CO)C(=O)N[C@H](C(N)=O)C(C)C)[C@@H](C)CC [compound 173] (H-DNPSLSIDLPTYLLRTLLELARTQSQRERAEQNAIIFASV-NH2) | ≥ 1000 nM | ≥ 100 nM | – | – |
| CC[C@H](C)[C@H](N)C(=O)N[C@H](C(=O)N[C@@H](CC(C)C)C(=O)N[C@@H](CO)C(=O)N[C@@H](CC(C)C)C(=O)N[C@@H](CC(=O)O)C(=O)N[C@H](C(=O)N1CCC[C@H]1C(=O)N[C@H](C(=O)NCC(=O)N[C@@H](CC(C)C)C(=O)N[C@@H](CC(C)C)C(=O)N[C@@H](CCC(N)=O)C(=O)N[C@H](C(=O)N[C@@H](CC(C)C)C(=O)N[C@@H](CC(C)C)C(=O)N[C@@H](CCC(=O)O)C(=O)N[C@H](C(=O)N[C@@H](CCC(=O)O)C(=O)N[C@@H](CCCCN)C(=O)N[C@@H](CCC(N)=O)C(=O)N[C@@H](CCC(=O)O)C(=O)N[C@@H](CCCCN)C(=O)N[C@@H](CCC(=O)O)C(=O)N[C@@H](CCCCN)C(=O)N[C@@H](CCC(N)=O)C(=O)N[C@@H](CCC(N)=O)C(=O)N[C@@H](C)C(=O)N[C@@H](C)C(=O)N[C@@H](CC(N)=O)C(=O)N[C@@H](CC(N)=O)C(=O)N[C@@H](CCCNC(=N)N)C(=O)N[C@@H](CC(C)C)C(=O)N[C@@H](CC(C)C)C(=O)N[C@@H](CC(C)C)C(=O)N[C@@H](CC(=O)O)C(=O)N[C@H](C(=O)N[C@H](C(N)=O)[C@@H](C)CC)[C@@H](C)O)[C@@H](C)CC)[C@@H](C)CC)[C@@H](C)CC)C(C)C)C(C)C [compound 158] (H-IVLSLDVPIGLLQILLEIEKQEKEKQQAANNRLLLDTI-NH2) | – | – | > 100 nM | 6.37 nM |
| SQEPPISLDLPTQLLREVLEMTKADQLAQQAHSNRKLLDIA-NH2 [compound 105] | ≥ 100 nM | ≥ 100 nM | – | – |
